Values of other authors, collected in paper PMC5517430, “2,3,7,8-Tetrachlorodibenzo-p-dioxin (TCDD)-elicited effects on bile acid homeostasis: Alterations in biosynthesis, enterohepatic circulation, and microbial metabolism” (Scientific Reports, 2017).

Tested on: FXR
Parameters: method as in PMID 23395169
Conditions: cited from earlier work

| SMILES | FXR antagonism |
| --- | --- |
| C[C@H](CCC(=O)NCCS(=O)(=O)O)[C@H]1CC[C@H]2[C@@H]3[C@H](O)[C@@H](O)[C@@H]4C[C@H](O)CC[C@]4(C)[C@H]3CC[C@]12C [T-α-MCA, tauro-α-muricholic acid] | competitive antagonists |
| C[C@H](CCC(=O)NCCS(=O)(=O)O)[C@H]1CC[C@H]2[C@@H]3[C@@H](O)[C@@H](O)[C@@H]4C[C@H](O)CC[C@]4(C)[C@H]3CC[C@]12C [T-β-MCA] | competitive antagonists |
